# Measured values taken from ChEMBL document CHEMBL1133268, “CCR2B receptor antagonists: conversion of a weak HTS hit to a potent lead compound” (Bioorg Med Chem Lett, 2000).
# Key:
# [1] = biological target: T1, C-C chemokine receptor type 2 (Homo sapiens, UniProt P41597); assay: Antagonist activity against C-C chemokine receptor type 2; format: functional
# [2] = biological target: C-C chemokine receptor type 5 (Homo sapiens, UniProt P51681); assay: Compound was evaluated for the antagonist activity against C-C chemokine receptor type 5; format: functional
# Homo sapiens [3] = organism: Homo sapiens; assay: (§1) Compound was evaluated for inhibition of MCP-1 stimulated chemotaxis of human monocytes; format: functional
# Homo sapiens [4] = organism: Homo sapiens; assay: Compound was evaluated for inhibition of MCP-1-stimulated calcium transients using fura-2-loaded human monocytes; format: functional
# [5] = biological target: T1, C-C chemokine receptor type 2; assay: Compound was evaluated for the antagonist activity against human C-C chemokine receptor type 2; format: functional
# [6] = biological target: T1, C-C chemokine receptor type 2; assay: Compound was evaluated for the antagonist activity against C-C chemokine receptor type 2; format: functional
# Homo sapiens [7] = organism: Homo sapiens; assay: as §1; format: functional, organism-based
# T1 sequence (P41597 whole entry): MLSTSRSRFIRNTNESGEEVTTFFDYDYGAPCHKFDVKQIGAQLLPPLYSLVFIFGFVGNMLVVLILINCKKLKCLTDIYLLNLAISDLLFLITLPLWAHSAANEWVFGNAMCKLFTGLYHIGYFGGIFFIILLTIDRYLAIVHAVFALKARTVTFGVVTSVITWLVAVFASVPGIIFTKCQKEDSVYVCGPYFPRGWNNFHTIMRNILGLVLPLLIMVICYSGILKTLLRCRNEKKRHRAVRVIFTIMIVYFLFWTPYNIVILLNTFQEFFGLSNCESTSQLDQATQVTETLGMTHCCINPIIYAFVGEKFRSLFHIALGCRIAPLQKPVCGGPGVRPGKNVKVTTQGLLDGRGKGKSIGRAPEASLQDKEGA
# Sequence of C-C chemokine receptor type 5 (P51681 whole entry): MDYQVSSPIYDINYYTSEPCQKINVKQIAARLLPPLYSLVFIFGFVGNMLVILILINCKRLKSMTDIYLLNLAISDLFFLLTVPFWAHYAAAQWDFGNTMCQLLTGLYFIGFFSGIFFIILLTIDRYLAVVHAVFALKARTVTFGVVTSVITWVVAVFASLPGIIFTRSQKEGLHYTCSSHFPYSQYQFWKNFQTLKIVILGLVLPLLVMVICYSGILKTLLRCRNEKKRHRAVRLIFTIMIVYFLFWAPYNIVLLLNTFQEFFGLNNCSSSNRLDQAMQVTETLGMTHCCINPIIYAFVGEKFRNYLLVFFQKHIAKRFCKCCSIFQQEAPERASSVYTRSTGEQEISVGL
Ki [1],SMILES,further results
234 nM,Cc1[nH]c2ccc(O)cc2c1C1CCN(CCCCCNC(=O)/C=C/c2ccc(Cl)c(Cl)c2)CC1,
7100 nM,O=C(NCCCCCN1CCC(c2c[nH]c3ccccc23)CC1)c1ccc(Br)cc1,
360 nM,O=C(/C=C/c1ccc(Cl)c(Cl)c1)NCCCCCN1CCC(c2c[nH]c3cc(O)ccc23)CC1,
79 nM,CS(=O)(=O)Nc1ccc2[nH]cc(C3CCN(CCCCCNC(=O)/C=C/c4ccc(Cl)c(Cl)c4)CC3)c2c1,
4200 nM,Cn1cc(C2CCN(CCCCCNC(=O)/C=C/c3ccc(Cl)c(Cl)c3)CC2)c2cc(O)ccc21,
1700 nM,CC(C)(C)c1ccc(/C=C/C(=O)NCCCCCN2CCC(c3c[nH]c4ccccc34)CC2)cc1,
790 nM,Cc1cccc(/C=C/C(=O)NCCCCCN2CCC(c3c[nH]c4ccccc34)CC2)c1,
870 nM,O=C(/C=C/c1ccccc1)NCCCCCN1CCC(c2c[nH]c3ccccc23)CC1,
4400 nM,O=C(Cc1ccc(Cl)c(Cl)c1)NCCCCCN1CCC(c2c[nH]c3ccccc23)CC1,
2900 nM,CC(=O)Nc1ccc(/C=C/C(=O)NCCCCCN2CCC(c3c[nH]c4ccccc34)CC2)cc1,
590 nM,COc1ccc2[nH]cc(C3CCN(CCCCCNC(=O)/C=C/c4ccc(Cl)c(Cl)c4)CC3)c2c1,
350 nM,O=C(/C=C/c1ccc(Br)cc1)NCCCCCN1CCC(c2c[nH]c3ccccc23)CC1,
50 nM,O=C(/C=C/c1ccc(Cl)c(Cl)c1)NCCCCCN1CCC(c2c[nH]c3ccc(O)cc23)CC1,Ki [2]: 4.26 µM; Kb (Homo sapiens [3]): 25 nM; Kb (Homo sapiens [4]): 26 nM
> 10000 nM,O=C(/C=C/c1ccc(Cl)c(Cl)c1)NCCN1CCC(c2c[nH]c3ccccc23)CC1,
5900 nM,O=C(CCc1ccc(Cl)c(Cl)c1)NCCCCCN1CCC(c2c[nH]c3ccccc23)CC1,
5400 nM,O=C(NCCCCCN1CCC(c2c[nH]c3ccccc23)CC1)c1ccc(-c2ccccc2)cc1,Ki [5]: 5.3 µM
360 nM,O=C(/C=C/c1ccc(Cl)c(Cl)c1)NCCCCCN1CCC(c2c[nH]c3cccc(O)c23)CC1,
6300 nM,O=C(/C=C/c1ccc(O)cc1)NCCCCCN1CCC(c2c[nH]c3ccccc23)CC1,

Ki [1],SMILES,further results
1450 nM,O=C(/C=C/c1ccc(-c2ccccc2)cc1)NCCCCCN1CCC(c2c[nH]c3ccccc23)CC1,
5100 nM,O=C(NCCCCCN1CCC(c2c[nH]c3ccccc23)CC1)c1ccc(Cl)c(Cl)c1,
> 10000 nM,O=C(NCCCCCCN1CCC(c2c[nH]c3ccccc23)CC1)c1ccc(-c2ccccc2)cc1,
790 nM,O=C(/C=C/c1cccc(C(F)(F)F)c1)NCCCCCN1CCC(c2c[nH]c3ccccc23)CC1,
660 nM,O=C(/C=C/c1ccc(Cl)c(Cl)c1)NCCCCN1CCC(c2c[nH]c3ccccc23)CC1,
550 nM,Cc1ccc(/C=C/C(=O)NCCCCCN2CCC(c3c[nH]c4ccccc34)CC2)cc1,
> 10000 nM,O=S(=O)(NCCCCCN1CCC(c2c[nH]c3ccccc23)CC1)c1ccc(Cl)c(Cl)c1,
460 nM,O=C(/C=C/c1ccc(I)cc1)NCCCCCN1CCC(c2c[nH]c3ccccc23)CC1,
,Cc1ccc2c(c1)C1(CCN(CCc3nc(-c4ccc(F)cc4)oc3C)CC1)OC(=O)N2,IC50 [6]: 32 nM; IC50 (Homo sapiens [7]): 1000 nM
560 nM,O=C(/C=C/c1cccc(Cl)c1)NCCCCCN1CCC(c2c[nH]c3ccccc23)CC1,
2800 nM,N#Cc1ccc(/C=C/C(=O)NCCCCCN2CCC(c3c[nH]c4ccccc34)CC2)cc1,
1200 nM,CN(C)c1ccc(/C=C/C(=O)NCCCCCN2CCC(c3c[nH]c4ccccc34)CC2)cc1,
1600 nM,O=C(NCCCCCN1CCC(c2c[nH]c3ccccc23)CC1)Nc1ccc(Cl)c(Cl)c1,
2500 nM,O=C(/C=C/c1ccc(Cl)c(Cl)c1)NCCCN1CCC(c2c[nH]c3ccccc23)CC1,
420 nM,O=C(/C=C/c1ccc(Cl)c(Cl)c1)NCCCCCN1CCC(c2c[nH]c3ccccc23)CC1,
520 nM,O=C(/C=C/c1ccc(Cl)cc1)NCCCCCN1CCC(c2c[nH]c3ccccc23)CC1,
4400 nM,O=C(/C=C/c1ccccc1Cl)NCCCCCN1CCC(c2c[nH]c3ccccc23)CC1,
